Data published in article PMC4641156, “Evaluation of a Novel Tc-99m Labelled Vitamin B12 Derivative for Targeting Escherichia coli and Staphylococcus aureus In Vitro and in an Experimental Foreign-Body Infection Model” (Molecular Imaging and Biology, 2015).

How the values were obtained:
[1] = Biodistribution after i.v. injection in tissue cage mouse model (organs, tissues, cages overall)
Method: (§1) C57Bl/6 mice from in-house breeding or purchased from Charles River Laboratories GmbH (Sulzfeld, Germany) were housed in the Animal Facility of the Department of Biomedicine, University Hospital, Basel, Switzerland. Experiments were performed in accordance to the regulations of Swiss veterinary law. The Institutional Animal Care and Use Committee approved the study protocol. Drinking water and standard laboratory food pellets (CR) were provided ad libitum. To reduce interference of high vitamin B12 level in mice, animals randomized for Cbl biodistribution studies were fed with a vitamin B12-reduced diet (Provimi Kliba AG, Kaiseraugst, Switzerland) beginning at the age of 10 weeks. At the age of 12 weeks, one sterile polytetrafluoroethylene (Teflon) tube (32 × 10 mm), perforated by 130 regularly spaced holes of 1 mm diameter, was aseptically implanted into the back of each mouse, as previously described. Each cage was weighted and numbered before implantation. Two weeks after surgery, clips were removed from healed wounds, and sterility of the cage was confirmed by culture of aspirated cage fluid. On the following day, 5 × 10^5 CFU of E. coli or 5 × 10^6 CFU of S. aureus, resuspended in 200 μl of 0.9 % saline, were injected into cages. Sterile 0.9 % saline was injected in cages in animals used as negative controls.
The two different experimental set-up of biodistribution were adapted to the known radiopharmaceutical binding/non-binding to plasma protein, persistence in organs and tissues and half-life of the labelling radioisotope.
(§2) Accumulation of radiopharmaceuticals in cage fluids was measured by resuspending 100 μl of aspirated fluid in 1 ml PBS and counted in a gamma counter. The percentage of injected dose (% IDTCF/ml) was calculated as measured CPM normalized per 1 ml cage fluid and divided by the CPM0 (injected dose). For determination of radiopharmaceutical biodistribution, mice were sacrificed with an intraperitoneal injection of 50–80 μl saline solution of pentothal (100 mg/ml). Blood was collected by cardiac puncture, and mice were perfused with 0.9 % saline for around 5 min. Following, tissues were dissected, weighted and collected into test tubes for γ-counter (blood, heart, liver, spleen, stomach, kidneys, lungs, intestine, muscle, bone and cage). The percentage of injected dose (% IDtissue/g) was calculated as CPM associated to each organ divided by its weight in grams and by the CPM0.

[2] = Distribution into sterile (non-infected) tissue cages and cage fluids; conditions: for Cage—sterile, mean % ID/g tissue ± SD: explanted sterile cage
Method: as §1, §2

E. coli-infected cages = test: Distribution into E. coli-infected tissue cages and cage fluids; conditions: for Cage—E. coli, mean % ID/g tissue ± SD: explanted E. coli-infected cage
Method: (§3) For in vivo studies, overnight cultures were prepared in 5 ml tryptic soy broth (TSB), incubated at 37 °C for 18–20 h. Bacterial suspensions were then washed three times, resuspended in 5 ml of sterile 0.9 % saline and diluted.
as §1, §2

S. aureus-infected cages = test: Distribution into S. aureus-infected tissue cages and cage fluids; conditions: for Cage—S. aureus, mean % ID/g tissue ± SD: explanted S. aureus-infected cage
Method: as §3, §1, §2

[3] = tested on: S. aureus (ATCC 35556, methicillin susceptible); test: In vitro binding of radiotracers to S. aureus (kinetics and competition with unlabeled Cbl); format: cell-based, Staphylococcus aureus
Method: Laboratory strains E. coli (ATCC 25922) and S. aureus (ATCC 35556, methicillin susceptible) were used. Bacteria were stored at −70 °C using a cryovial bead preservation system (Microbank, Pro-Lab Diagnostics, Richmond Hill, ON, Canada). Single cryovial beads were cultured overnight on Columbia sheep blood agar plates (Becton Dickinson, Heidelberg, Germany). For in vitro binding studies, overnight cultures were prepared in snap-lid tubes from 2 to 3 CFU in 5 ml of a synthetic minimal medium depleted of vitamin B12. After 18–20 h of incubation at 37 °C and 200 rpm, the cultures were diluted 1:100 in the same medium and further incubated at 37 °C to mid-logarithmic phase in sealed tubes. […] Five hundred microlitres of resuspended cultures were transferred to Eppendorf tubes and used for the measurement of binding to viable bacteria at 37 °C. For testing binding at 4 °C, bacterial suspension in PBS were let to equilibrate for 1 h at 4 °C before adding the radiopharmaceuticals. […] The bacterial suspensions were then centrifuged, resuspended in PBS and used for further studies. […] Colony counts remained <10 CFU/ml. Five hundred microlitres of each radiopharmaceutical solution was added to the 500 μl of bacterial suspensions. Binding assays were performed in quadruplicate vials per testing conditions. Afterwards, vials were centrifuged for 5 min at 13,500 rpm and 4 °C, and pellets were washed with 500 μl of cooled PBS. Supernatants and resuspended pellets were counted in a multi-well NaI γ-counter (Cobra; Packard, USA) and the counts per minute (CPM) recorded. The percentage of radiolabeled Cbl in the pellets was calculated as the percentage of the CPMp/CPM0 ratio per log10 8.0 CFU/ml, where CPMp were the CPM associated to pellets and CPM0 were the total CPM of the radiolabeled Cbl added per vial.

[4] = tested on: transcobalamin II (TC II); design: method as in PMID 12831983, PMID 18413759; conditions: cited from earlier work
E. coli (ATCC 25922) = test: In vitro binding of radiotracers to E. coli (kinetics and competition with unlabeled Cbl); format: cell-based, Escherichia coli
Method: Laboratory strains E. coli (ATCC 25922) and S. aureus (ATCC 35556, methicillin susceptible) were used. Bacteria were stored at −70 °C using a cryovial bead preservation system (Microbank, Pro-Lab Diagnostics, Richmond Hill, ON, Canada). Single cryovial beads were cultured overnight on Columbia sheep blood agar plates (Becton Dickinson, Heidelberg, Germany). For in vitro binding studies, overnight cultures were prepared in snap-lid tubes from 2 to 3 CFU in 5 ml of a synthetic minimal medium depleted of vitamin B12. After 18–20 h of incubation at 37 °C and 200 rpm, the cultures were diluted 1:100 in the same medium and further incubated at 37 °C to mid-logarithmic phase in sealed tubes. […] Five hundred microlitres of resuspended cultures were transferred to Eppendorf tubes and used for the measurement of binding to viable bacteria at 37 °C. For testing binding at 4 °C, bacterial suspension in PBS were let to equilibrate for 1 h at 4 °C before adding the radiopharmaceuticals. […] Supernatants and resuspended pellets were counted in a multi-well NaI γ-counter (Cobra; Packard, USA) and the counts per minute (CPM) recorded. The percentage of radiolabeled Cbl in the pellets was calculated as the percentage of the CPMp/CPM0 ratio per log10 8.0 CFU/ml, where CPMp were the CPM associated to pellets and CPM0 were the total CPM of the radiolabeled Cbl added per vial.

[5] = cage fluid, vs sterile controls

O=C([O-])CC(O)(CC(=O)[O-])C(=O)[O-].[67Ga+3] [[^67Ga]citrate, Gallium-67 citrate]
Blood, mean % ID/g tissue ± SD ([1]; 72 h after i.v. injection): 0.46 ± 0.20 % ID/g tissue | Bone, mean % ID/g tissue ± SD ([1]; 72 h after i.v. injection): 10.99 ± 2.40 % ID/g tissue | Time to peak values in cages ([1]; cage fluids): ≤ 12 h | Heart, mean % ID/g tissue ± SD ([1]; 72 h after i.v. injection): 1.26 ± 0.10 % ID/g tissue | Intestine, mean % ID/g tissue ± SD ([1]; 72 h after i.v. injection): 2.00 ± 0.40 % ID/g tissue | Kidneys, mean % ID/g tissue ± SD ([1]; 72 h after i.v. injection): 10.73 ± 1.30 % ID/g tissue | Liver, mean % ID/g tissue ± SD ([1]; 72 h after i.v. injection): 7.44 ± 0.90 % ID/g tissue | Lungs, mean % ID/g tissue ± SD ([1]; 72 h after i.v. injection): 2.11 ± 0.30 % ID/g tissue | Muscle, mean % ID/g tissue ± SD ([1]; 72 h after i.v. injection): 0.69 ± 0.20 % ID/g tissue | Spleen, mean % ID/g tissue ± SD ([1]; 72 h after i.v. injection): 6.09 ± 0.70 % ID/g tissue | Stomach, mean % ID/g tissue ± SD ([1]; 72 h after i.v. injection): 3.73 ± 1.50 % ID/g tissue | Cage fluid/blood ratio, control (non-infected) mice ([2]; 72 h p.i.): 1.14 ± 0.21 | Cage—sterile, mean % ID/g tissue ± SD ([2]; 72 h after i.v. injection): 1.45 ± 0.50 % ID/g tissue | Cage fluid/blood ratio, mice infected with E. coli (E. coli-infected cages; 72 h p.i.): 5.41 ± 0.52 | Cage—E. coli, mean % ID/g tissue ± SD (E. coli-infected cages; 72 h after i.v. injection): 3.99 ± 1.10 % ID/g tissue | Cage fluid/blood ratio, mice infected with S. aureus (S. aureus-infected cages; 72 h p.i.): 3.56 ± 0.87 | Cage—S. aureus, mean % ID/g tissue ± SD (S. aureus-infected cages; 72 h after i.v. injection): 9.45 ± 2.30 % ID/g tissue

O=C([O-])CN(CCN(CC(=O)[O-])CC(=O)[O-])CCN(CC(=O)[O-])CC(=O)[O-].[99Tc+4] [[^99mTc]DTPA]
Blood, mean % ID/g tissue ± SD ([1]; 30 min after i.v. injection): 1.46 ± 1.10 % ID/g tissue | Blood, mean % ID/g tissue ± SD ([1]; 4 h after i.v. injection): 0.02 ± 0.10 % ID/g tissue | Blood, mean % ID/g tissue ± SD ([1]; 24 h after i.v. injection): 0.01 ± 0.00 % ID/g tissue | Bone, mean % ID/g tissue ± SD ([1]; 30 min after i.v. injection): 0.47 ± 0.30 % ID/g tissue | Bone, mean % ID/g tissue ± SD ([1]; 4 h after i.v. injection): 0.05 ± 1.50 % ID/g tissue | Bone, mean % ID/g tissue ± SD ([1]; 24 h after i.v. injection): 0.01 ± 0.00 % ID/g tissue | Heart, mean % ID/g tissue ± SD ([1]; 4 h after i.v. injection): 0.05 ± 0.00 % ID/g tissue | Heart, mean % ID/g tissue ± SD ([1]; 24 h after i.v. injection): 0.01 ± 0.00 % ID/g tissue | Intestine, mean % ID/g tissue ± SD ([1]; 30 min after i.v. injection): 0.90 ± 0.50 % ID/g tissue | Intestine, mean % ID/g tissue ± SD ([1]; 4 h after i.v. injection): 0.66 ± 0.20 % ID/g tissue | Intestine, mean % ID/g tissue ± SD ([1]; 24 h after i.v. injection): 0.02 ± 0.00 % ID/g tissue | Kidneys, mean % ID/g tissue ± SD ([1]; 30 min after i.v. injection): 3.92 ± 0.80 % ID/g tissue | Kidneys, mean % ID/g tissue ± SD ([1]; 4 h after i.v. injection): 0.93 ± 0.80 % ID/g tissue | Kidneys, mean % ID/g tissue ± SD ([1]; 24 h after i.v. injection): 0.15 ± 0.00 % ID/g tissue | Liver, mean % ID/g tissue ± SD ([1]; 30 min after i.v. injection): 0.33 ± 0.20 % ID/g tissue | Liver, mean % ID/g tissue ± SD ([1]; 4 h after i.v. injection): 0.09 ± 0.00 % ID/g tissue | Liver, mean % ID/g tissue ± SD ([1]; 24 h after i.v. injection): 0.02 ± 0.00 % ID/g tissue | Lungs, mean % ID/g tissue ± SD ([1]; 30 min after i.v. injection): 0.40 ± 0.20 % ID/g tissue | Lungs, mean % ID/g tissue ± SD ([1]; 4 h after i.v. injection): 0.06 ± 0.10 % ID/g tissue | Lungs, mean % ID/g tissue ± SD ([1]; 24 h after i.v. injection): 0.01 ± 0.00 % ID/g tissue | Muscle, mean % ID/g tissue ± SD ([1]; 30 min after i.v. injection): 0.34 ± 0.30 % ID/g tissue | Muscle, mean % ID/g tissue ± SD ([1]; 4 h after i.v. injection): 0.06 ± 1.10 % ID/g tissue | Muscle, mean % ID/g tissue ± SD ([1]; 24 h after i.v. injection): 0.00 ± 0.00 % ID/g tissue | Spleen, mean % ID/g tissue ± SD ([1]; 30 min after i.v. injection): 0.19 ± 0.00 % ID/g tissue | Spleen, mean % ID/g tissue ± SD ([1]; 4 h after i.v. injection): 0.06 ± 0.00 % ID/g tissue | Spleen, mean % ID/g tissue ± SD ([1]; 24 h after i.v. injection): 0.02 ± 0.00 % ID/g tissue | Stomach, mean % ID/g tissue ± SD ([1]; 30 min after i.v. injection): 1.67 ± 1.70 % ID/g tissue | Stomach, mean % ID/g tissue ± SD ([1]; 4 h after i.v. injection): 0.05 ± 1.10 % ID/g tissue | Stomach, mean % ID/g tissue ± SD ([1]; 24 h after i.v. injection): 0.02 ± 0.00 % ID/g tissue | Cage—sterile, mean % ID/g tissue ± SD ([2]; 30 min after i.v. injection): 2.88 ± 0.50 % ID/g tissue | Cage—sterile, mean % ID/g tissue ± SD ([2]; 4 h after i.v. injection): 0.34 ± 0.40 % ID/g tissue | Cage—sterile, mean % ID/g tissue ± SD ([2]; 24 h after i.v. injection): 0.01 ± 0.00 % ID/g tissue | Cage—E. coli, mean % ID/g tissue ± SD (E. coli-infected cages; 4 h after i.v. injection): 0.91 ± 0.15 % ID/g tissue | Cage—E. coli, mean % ID/g tissue ± SD (E. coli-infected cages; 24 h after i.v. injection): 0.15 ± 0.10 % ID/g tissue | Cage—S. aureus, mean % ID/g tissue ± SD (S. aureus-infected cages; 4 h after i.v. injection): 0.40 ± 0.10 % ID/g tissue | Cage—S. aureus, mean % ID/g tissue ± SD (S. aureus-infected cages; 24 h after i.v. injection): 0.05 ± 0.10 % ID/g tissue

[^99mTc]PAMA(4)-cyanocobalamin [[^99mTc]PAMA(4)-Cbl]
Binding to killed S. aureus ([3]; ethanol-killed and/or heat-killed bacteria): no binding | In vitro binding to S. aureus, fold lower than [57Co]Cbl ([3]; relative to [57Co]Cbl): 3 fold | Cage fluid/blood ratio, non-infected mice ([2]; 24 h p.i.): 1.53 ± 0.30 | Binding to the major Cbl transport protein TC II [4]: abolished binding | Time p.i. at which cage fluid retention was significantly higher in E. coli-infected than control mice (E. coli-infected cages; [5]): 8 h | Time p.i. at which cage fluid % IDTCF/ml was significantly higher in S. aureus-infected than control mice (S. aureus-infected cages; [5]): 4 h

cyanocobalamin [unlabeled Cbl]
Excess of unlabeled Cbl that decreased [99mTc]PAMA(4)-Cbl binding to S. aureus ([3]; S. aureus, 3 h): 1 fold | Excess of unlabeled Cbl that reduced [57Co]Cbl binding to S. aureus ([3]; both 37 and 4 °C, 3 h): 10 fold | Cold Cbl excess sufficient to reduce maximal [57Co]Cbl binding to E. coli to 50 % (E. coli (ATCC 25922); 4 °C and ethanol-killed bacteria): 10 fold | Concentration of unlabeled Cbl required to show inhibition of [57Co]Cbl binding to E. coli (E. coli (ATCC 25922); 37 °C, viable bacteria, 1 h simultaneous incubation): 1000 fold
